Laboratory results: ChEMBL document CHEMBL1141107, “A novel series of non-carboxylic acid, non-hydantoin inhibitors of aldose reductase with potent oral activity in diabetic rat models: 6-(5-chloro-3-methylbenzofuran-2-sulfonyl)-2H-pyridazin-3-one and congeners” (J Med Chem, 2005)

Assays:
[1] = biological target: Aldo-keto reductase family 1 member B1 (Homo sapiens, UniProt P15121); test: In vitro inhibitroy concentration against Aldose reductase incubated at 24 degree C for 15 minutes in pH 7.0
Rattus norvegicus [2] = test: Inhibition of sorbitol accumulation in diabetic rat by acute test; dosed at 10 mg/kg; format: functional
Rattus norvegicus [3] = test: Inhibition of fructose accumulation in diabetic rat after oral gavage administration incubated at RT for 60 minutes in pH 4.5 by acute test; dosed at 10 mg/kg; format: functional; conditions: 1 h
Rattus norvegicus [4] = test: Inhibition of sorbitol accumulation in diabetic rat by acute test; dosed at 20 mg/kg; format: functional
Rattus norvegicus [5] = test: Inhibition of fructose accumulation in diabetic rat after oral gavage administration incubated at RT for 60 minutes in pH 4.5 by acute test; dosed at 20 mg/kg; format: functional; conditions: 1 h
Rattus norvegicus [6] = test: Inhibition of sorbitol accumulation in diabetic rat by acute test dosed at 50 mg/kg; format: functional
Rattus norvegicus [7] = test: Inhibition of sorbitol accumulation in diabetic rat by acute test dosed at 20 mg/kg; format: functional
Rattus norvegicus [8] = test: Inhibition of fructose accumulation in diabetic rat after oral gavage administration incubated at RT for 60 minutes in pH 4.5 by acute test dosed at 20 mg/kg; format: functional; conditions: 1 h
Rattus norvegicus [9] = test: Inhibition of fructose accumulation in diabetic rat after oral gavage administration, pH 4.5 by chronic test; format: functional
Rattus norvegicus [10] = test: Inhibition of sorbitol accumulation in diabetic rat by chronic test dosed at 20 mg/kg; format: functional
Rattus norvegicus [11] = test: Inhibition of sorbitol accumulation in diabetic rat by chronic test dosed at 10 mg/kg; format: functional
Rattus norvegicus [12] = test: Inhibition of fructose accumulation in diabetic rat after oral gavage administration, pH 4.5 by chronic test dosed at 20 mg/kg; format: functional
Rattus norvegicus [13] = test: Inhibition of fructose accumulation in diabetic rat after oral gavage administration incubated at RT for 60 minutes in pH 4.5 by acute test dosed at 10 mg/kg; format: functional; conditions: 1 h
Rattus norvegicus [14] = test: Inhibition of sorbitol accumulation in diabetic rat by acute test dosed at 10 mg/kg; format: functional
Rattus norvegicus [15] = test: Inhibition of fructose accumulation in diabetic rat after oral gavage administration, pH 4.5 by chronic test dosed at 10 mg/kg; format: functional
Rattus norvegicus [16] = test: Inhibition of fructose accumulation in diabetic rat after oral gavage administration incubated at RT for 60 minutes in pH 4.5 by chronic test 30 mg/kg; conditions: 1 h
Rattus norvegicus [17] = test: Inhibition of fructose accumulation in diabetic rat after oral gavage administration incubated at RT for 60 minutes in pH 4.5 by chronic test 10 mg/kg; conditions: 1 h
Rattus norvegicus [18] = test: Inhibition of sorbitol accumulation in diabetic rat by acute test dosed at 5 mg/kg; format: functional
Rattus norvegicus [19] = test: Inhibition of fructose accumulation in diabetic rat after oral gavage administration, pH 4.5 by chronic test dosed at 5 mg/kg; format: functional
Rattus norvegicus [20] = test: Inhibition of fructose accumulation in diabetic rat after oral gavage administration incubated at RT for 60 minutes in pH 4.5 by acute test dosed at 5 mg/kg; format: functional; conditions: 1 h
Rattus norvegicus [21] = test: Inhibition of sorbitol accumulation in diabetic rat by chronic test dosed at 5 mg/kg; format: functional

Compound | IC50 [1] | inhibition in vivo at 20 mg/kg (Rattus norvegicus [7]) | inhibition in vivo at 20 mg/kg (Rattus norvegicus [8]) | inhibition in vivo at 10 mg/kg (Rattus norvegicus [13]) | inhibition in vivo at 10 mg/kg (Rattus norvegicus [14]) | other results
O=S(=O)(Cc1ccccc1Cl)c1ccc(O)nn1 | 118 nM | – | – | – | – | –
O=S(=O)(c1ccc(O)nn1)c1ccccc1Br | – | – | – | – | – | inhibition in vivo at 50 mg/kg (Rattus norvegicus [6]): 55%
O=S(=O)(c1ccc2ccccc2c1)c1ccc(O)nn1 | 360 nM | – | – | – | – | Inhibition (Rattus norvegicus [9]): 51%; inhibition in vivo at 20 mg/kg (Rattus norvegicus [10]): 74%
O=c1ccc(S(=O)(=O)c2cccc3ccccc23)n[nH]1 | 150 nM | 95% | 55% | 49% | 88% | inhibition in vivo at 10 mg/kg (Rattus norvegicus [11]): 60%; inhibition in vivo at 20 mg/kg (Rattus norvegicus [12]): 43%; inhibition in vivo at 20 mg/kg (Rattus norvegicus [10]): 70%; inhibition in vivo at 10 mg/kg (Rattus norvegicus [15]): 31%
O=c1ccc(S(=O)(=O)c2cccc(C(F)(F)F)c2)n[nH]1 | 175 nM | 45% | 17% | – | – | –
O=S(=O)(Cc1cccc(Cl)c1F)c1ccc(O)nn1 | 54 nM | 74% | 64% | – | – | –
COc1ccc2oc(S(=O)(=O)c3ccc(=O)[nH]n3)cc2c1 | 230 nM | 49% | 34% | – | – | –
O=c1ccc(S(=O)(=O)c2cc3cc(Cl)ccc3o2)n[nH]1 | – | – | – | 39% | – | –
O=c1ccc(S(=O)(=O)c2oc3ccccc3c2-c2ccccc2)n[nH]1 | 23 nM | – | – | – | – | –
O=S(=O)(c1ccc(O)nn1)c1ccccc1Cl | – | 101% | 81% | 68% | 96% | –
O=S(=O)(c1ccc(O)nn1)c1ccc(F)cc1Cl | – | 106% | 97% | 87% | 95% | –
O=S(=O)(c1ccc(Cl)c(Cl)c1)c1ccc(O)nn1 | – | 98% | 85% | 60% | 84% | –
Cc1ccc2oc(S(=O)(=O)c3ccc(O)nn3)c(C)c2c1 | 13 nM | – | – | 18% | 21% | –
O=S(=O)(c1cc(Cl)cc(Cl)c1)c1ccc(O)nn1 | – | 91% | 49% | – | – | inhibition in vivo at 5 mg/kg (Rattus norvegicus [18]): 68%; inhibition in vivo at 20 mg/kg (Rattus norvegicus [12]): 38%; inhibition in vivo at 5 mg/kg (Rattus norvegicus [19]): 30%; inhibition in vivo at 5 mg/kg (Rattus norvegicus [20]): 32%; inhibition in vivo at 20 mg/kg (Rattus norvegicus [10]): 73%; inhibition in vivo at 5 mg/kg (Rattus norvegicus [21]): 63%
O=S(=O)(c1ccc(O)nn1)c1oc2ccccc2c1-c1ccc(F)cc1 | 49 nM | – | – | 50% | 66% | –
O=c1ccc(S(=O)(=O)c2ccc(Br)cc2)n[nH]1 | 350 nM | – | – | – | – | inhibition in vivo at 50 mg/kg (Rattus norvegicus [6]): 26%

Now from value to molecule, other results behind:

IC50 [1] | Compound | inhibition in vivo at 20 mg/kg (Rattus norvegicus [7]) | inhibition in vivo at 20 mg/kg (Rattus norvegicus [8]) | inhibition in vivo at 10 mg/kg (Rattus norvegicus [13]) | inhibition in vivo at 10 mg/kg (Rattus norvegicus [14]) | other results
3800 nM | O=c1ccc(S(=O)(=O)c2cc3cc4c(cc3[nH]2)OCO4)n[nH]1 | – | – | – | – | –
73 nM | O=c1ccc(S(=O)(=O)c2cc(Cl)ccc2Cl)n[nH]1 | – | – | – | – | inhibition in vivo at 10 mg/kg (Rattus norvegicus [2]): 65%; inhibition in vivo at 10 mg/kg (Rattus norvegicus [3]): 36%; inhibition in vivo at 20 mg/kg (Rattus norvegicus [4]): 79%; inhibition in vivo at 20 mg/kg (Rattus norvegicus [5]): 67%
450 nM | O=c1ccc(S(=O)(=O)c2cc3cccc(Cl)c3[nH]2)n[nH]1 | 40% | 44% | – | – | –
390 nM | O=c1ccc(S(=O)(=O)c2cccc(F)c2F)n[nH]1 | – | – | – | – | inhibition in vivo at 30 mg/kg (Rattus norvegicus [16]): 81%; inhibition in vivo at 10 mg/kg (Rattus norvegicus [17]): 50%
52 nM | O=c1ccc(S(=O)(=O)Cc2c(Cl)cccc2Cl)n[nH]1 | – | – | 24% | 42% | –
540 nM | O=c1ccc(S(=O)(=O)c2ccccc2F)n[nH]1 | 91% | 56% | 34% | 79% | –
180 nM | O=c1ccc(S(=O)(=O)c2cc3ccccc3s2)n[nH]1 | 46% | 22% | – | – | –
160 nM | Cc1ccc2sc(S(=O)(=O)c3ccc(O)nn3)cc2c1 | – | 7% | – | – | –
34 nM | O=c1ccc(S(=O)(=O)c2oc3ccc(Cl)cc3c2-c2ccccc2)n[nH]1 | 27% | 20% | – | – | –
474 nM | O=c1ccc(S(=O)(=O)c2ccc(F)cc2)n[nH]1 | – | – | – | – | inhibition in vivo at 50 mg/kg (Rattus norvegicus [6]): 81%
55 nM | O=c1ccc(S(=O)(=O)c2cccc(Cl)c2Cl)n[nH]1 | 98% | – | – | 77% | inhibition in vivo at 5 mg/kg (Rattus norvegicus [18]): 55%; inhibition in vivo at 20 mg/kg (Rattus norvegicus [10]): 89%; inhibition in vivo at 5 mg/kg (Rattus norvegicus [21]): 81%
